Values belong to the molecule of their own block, whether it stands above or below them.
How the values were obtained:
human BGT1 = molecular target: T1, human BGT1 (Homo sapiens, UniProt P48065); assay: Fluorescence interference control: BGT1-mediated GABA uptake in the FMP assay; type: cell-based; conditions: 110 μM GABA uptake by BGT1 in δ-HEK cells; 2027 at 30, 10, 3 μM
T1 construct: expressed in transfected cells; host or cells: δ-HEK cells, transient transfection (pcDNA5/FRT)
T1 sequence (P48065 1-614): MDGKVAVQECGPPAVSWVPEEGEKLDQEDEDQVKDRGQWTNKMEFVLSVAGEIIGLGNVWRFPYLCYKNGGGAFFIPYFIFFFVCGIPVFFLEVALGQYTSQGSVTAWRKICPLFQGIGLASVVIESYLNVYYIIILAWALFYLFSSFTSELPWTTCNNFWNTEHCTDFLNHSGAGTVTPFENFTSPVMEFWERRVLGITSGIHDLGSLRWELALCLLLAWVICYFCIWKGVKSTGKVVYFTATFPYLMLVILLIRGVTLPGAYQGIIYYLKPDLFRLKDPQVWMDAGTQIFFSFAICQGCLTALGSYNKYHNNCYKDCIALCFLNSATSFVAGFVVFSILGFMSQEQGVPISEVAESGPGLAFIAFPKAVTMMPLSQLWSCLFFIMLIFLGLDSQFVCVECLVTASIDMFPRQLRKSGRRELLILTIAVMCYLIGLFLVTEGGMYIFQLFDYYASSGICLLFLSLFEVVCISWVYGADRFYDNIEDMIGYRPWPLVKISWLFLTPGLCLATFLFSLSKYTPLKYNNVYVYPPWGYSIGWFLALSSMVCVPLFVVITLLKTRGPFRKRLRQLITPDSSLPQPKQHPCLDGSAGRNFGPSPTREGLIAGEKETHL
From the text: (§1) To express recombinant GABAΑ receptors human α1, α2, α3, α5, α6, β2, γ2 (pcDNA3.1/Zeo) and α4, β1 (pUNIV)[26] subunit cDNA were transiently transfected into either δ-HEK or HEK background cells. δ-HEK cells were transfected with α- and β-subunits in a 1:1 ration whereas HEK background cells were transfected with α-, β- and γ-subunits in a 1:1:2 ratio. Human BGT1 (pcDNA5/FRT)[43] was transiently transfected into the δ-HEK cell line. δ-HEK cells transfected for whole-cell patch-clamp recordings were co-transfected with green fluorescent protein (GFP) as well as α- and β-subunits in a 0.5:1:1 ratio (0.8 μg + 1.6 μg + 1.6 μg in a 6 cm dish) in order to identify transfected cells. The transfection was carried out using Polyfect as transfection reagent according to the manufactures protocol expect for using half the recommended volume of Polyfect.
assay (perf ormed essentially as previously described in methods section and based on Al-Khawaja et al.).
in d-HEK cells was not decreased/quenched by 2027 in any of the tested concentrations. Data are shown as
means ± SD f rom a representative expe riment perf orme d in triplicate (n=2).
BGT1 expressed in HEK-δ cells

[1] = tested on: tonic currents in dentate gyrus granule cells; conditions: rat slice recordings, cited from earlier work
[2] = molecular target: T2, human α4β1δ GABAΑ receptor (Homo sapiens, UniProt P18505+P48169); assay: FMP assay at α4β1δ GABAA receptors in HEK cells (screening, concentration-inhibition, Schild analysis); type: cell-based; conditions: HEK293, read-out: inhibition of the GABA EC80 signal, primary screening, 10 μM, singlicates
T2 construct: expressed in transfected cells; host or cells: δ-HEK (HEK293 Flp-In stably expressing human δ), transiently transfected with α4 and β1 1:1
T2 sequence (P48169 36-554): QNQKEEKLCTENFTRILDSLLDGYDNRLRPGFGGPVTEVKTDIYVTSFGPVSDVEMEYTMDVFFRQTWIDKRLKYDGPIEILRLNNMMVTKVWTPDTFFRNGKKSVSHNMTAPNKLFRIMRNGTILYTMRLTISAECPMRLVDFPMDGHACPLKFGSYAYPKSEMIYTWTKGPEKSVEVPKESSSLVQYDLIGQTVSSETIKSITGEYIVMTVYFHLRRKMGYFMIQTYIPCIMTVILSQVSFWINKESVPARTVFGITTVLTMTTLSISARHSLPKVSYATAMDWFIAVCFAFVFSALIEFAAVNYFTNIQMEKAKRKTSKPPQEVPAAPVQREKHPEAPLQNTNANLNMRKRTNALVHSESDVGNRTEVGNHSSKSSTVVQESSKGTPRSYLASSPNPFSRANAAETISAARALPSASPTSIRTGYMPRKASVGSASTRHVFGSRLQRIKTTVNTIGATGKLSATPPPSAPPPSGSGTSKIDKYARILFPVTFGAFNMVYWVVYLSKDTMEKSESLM
T2 sequence (P18505 26-474): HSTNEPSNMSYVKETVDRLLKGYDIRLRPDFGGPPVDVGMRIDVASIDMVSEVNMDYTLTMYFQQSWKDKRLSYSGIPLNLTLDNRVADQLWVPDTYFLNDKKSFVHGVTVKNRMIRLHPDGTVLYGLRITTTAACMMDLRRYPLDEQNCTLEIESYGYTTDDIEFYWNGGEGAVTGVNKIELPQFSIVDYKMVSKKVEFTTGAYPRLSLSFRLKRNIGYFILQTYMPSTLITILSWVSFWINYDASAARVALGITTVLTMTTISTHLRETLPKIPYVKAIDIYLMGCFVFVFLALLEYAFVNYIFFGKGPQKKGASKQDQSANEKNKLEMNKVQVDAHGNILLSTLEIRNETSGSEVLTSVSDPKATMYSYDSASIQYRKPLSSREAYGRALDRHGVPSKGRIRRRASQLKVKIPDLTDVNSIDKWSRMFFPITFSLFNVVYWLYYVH
T2 sequence (O14764 25-452 partner): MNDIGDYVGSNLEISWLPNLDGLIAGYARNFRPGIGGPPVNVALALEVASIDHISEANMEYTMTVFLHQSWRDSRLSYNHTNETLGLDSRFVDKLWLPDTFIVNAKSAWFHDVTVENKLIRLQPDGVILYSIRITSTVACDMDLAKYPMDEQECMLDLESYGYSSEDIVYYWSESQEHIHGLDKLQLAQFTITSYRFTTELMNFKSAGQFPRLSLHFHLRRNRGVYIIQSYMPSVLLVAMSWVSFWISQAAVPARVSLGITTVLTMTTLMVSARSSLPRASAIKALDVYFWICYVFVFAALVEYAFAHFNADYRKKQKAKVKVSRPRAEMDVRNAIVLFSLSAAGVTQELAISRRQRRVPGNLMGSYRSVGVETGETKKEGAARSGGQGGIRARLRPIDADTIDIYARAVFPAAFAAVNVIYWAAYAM
From the text: We have previously established a FLIPR membrane potential (FMP) assay to study recombinant δ-containing GABAΑRs entailing a HEK293 Flp-In cell line stably expressing the human δ-subunit which is suitable for co-transfection with any desired α/β subunits. Initially, we validated the applicability of the FMP assay for efficient compound screening in 96-well microtiter plates using the human α4β1δ GABAΑR heterologously expressed in HEK cells. This receptor was chosen as we have previously shown this system to be reliable in expressing δ-containing receptors. To this end, we determined the Z′-factor, which is a statistical factor used to measure the suitability of an assay for high throughput screening.
Thus, we went on to further characterize 2027 by making a full concentration-inhibition curve.
HEK293 cells were maintained in DMEM containing GlutaMAX-I, supplemented with 10% FBS and 1% penicillin-streptomycin and incubated at 37 °C and a humidity of 5% CO2. For expression of δ-containing GABAΑ receptors, a HEK293 Flp-In^ΤΜ cell line stably expressing the human GABAΑ δ-subunits (referred to as δ-HEK) was used and the γ-containing subtypes was expressed in a background HEK293 Flp-In^ΤΜ cell line stably expressing the G-protein coupled peptide receptor NPBWR2 (referred to as HEK background)[26], both positively selected for using 200 μg/mL hygromycin B. α1β2γ2 receptors were stably expressed in a HEK293 cell line maintained as above but with no selection (gift from Marianne L. Jensen, Neurosearch).
as §1
The FMP assay was performed as previously described with a few modifications. Briefly, HEK cells were transfected as described[26] and 16–20 hours later plated (50,000 cells/well in DMEM medium) into clear-bottomed black 96-well plates coated with poly-D-lysine and the assay performed 20–28 hours later. The assay protocol including the FMP blue dye incorporation into membranes was exactly as described in Falk-Petersen et al.[26]. […] Data was obtained as changes in fluorescence units (∆RFU) by measuring emission at 560 nm caused by excitation at 530 nm. Unless otherwise mentioned in the text or figure legends experiments were performed in at least three independent experiments each using three technical replicates.
Data obtained in the FMP assay are given as relative changes in fluorescence units (ΔRFU) by subtracting the average of the baseline fluorescence signal from the peak fluorescence signal after compound addition. All raw traces were inspected manually and peak signals resulting from compound/buffer addition together with signal artefacts were omitted from the analysis.
The concentration-response curves obtained in the FMP assay for both agonists (determining EC50 values) and antagonists (determining IC50 values) were fitted using the four-parameter concentration-response model: Response=bottom+top−bottom/1+10^[(logEC50-A)⋅nH] EC/IC50 values describe the concentration resulting in the half-maximal response (halfway between top and bottom), and nΗ is the Hill coefficient.

interference with / quenching of the fluorescence signal (human BGT1): do not interfere
SMILES: COc1ccc(-c2ccc(=N)n(CCCC(=O)O)n2)cc1 [Gabazine, reference compound]

SMILES: Oc1noc(C2CCNCC2)c1CCC(c1ccccc1)c1ccccc1 [DPP-4-PIOL]
IC50 ([1]; read-out: IC50 inhibiting tonic currents): 0.87 nM | potency in inhibiting tonic over phasic currents [1]: approximately 20 times

inhibition at 10 µM [2]: > 50%
SMILES: COc1ccccc1NC(=O)C1CCN(Cc2ccco2)CC1 [compound 2100, 1-(furan-2-ylmethyl)-N-(2-methoxyphenyl)piperidine-4-carboxamide]

Reference: publication PMC7308271, “Discovery of a new class of orthosteric antagonists with nanomolar potency at extrasynaptic GABAA receptors” (Scientific Reports, 2020)
